Experimental data from ChEMBL document CHEMBL3611986, “Reversal of P-gp and BCRP-mediated MDR by tariquidar derivatives” (Eur J Med Chem, 2015).
Active and inactive are the calls of the source. No cut-off for these calls is given here.

Assays:
HCT-116 = assay: Cytotoxicity against human HCT116 cells assessed as cell viability after 48 hrs by MTT assay; assay type: cell-based; details: HCT-116, 48 h
SW-620 [1] = assay: Cytotoxicity against human SW620 cells assessed as cell viability after 48 hrs by MTT assay; assay type: cell-based; details: SW-620, 48 h
[2] = Cytotoxicity against human SW620/AD300 cells assessed as cell viability after 48 hrs by MTT assay; assay type: cell-based; details: SW-620, 48 h
[3] = Cytotoxicity against human CCD-18Co cells assessed as cell viability after 48 hrs by MTT assay; assay type: cell-based
[4] = Cytotoxicity against human HFE cells assessed as cell viability after 72 hrs by MTT assay; assay type: cell-based
Hepatocyte = assay: Cytotoxicity against rat hepatocytes assessed as cell viability after 72 hrs by MTT assay; assay type: cell-based; details: for IC50: Rattus norvegicus, Hepatocyte; for Activity: rat, hepatocytes
[5] = target: T1, ATP-dependent translocase ABCB1 (Homo sapiens, UniProt P08183); assay: (§1) Inhibition of p-glycoprotein-mediated rhodamine-123 efflux in human K562/p-gp cells at 0.5 uM after 1 hr by flow cytometry relative to tariquidar; assay type: cell-based; details: 1 h, 0.5 µM
[6] = target: T1, ATP-dependent translocase ABCB1; assay: Inhibition of p-glycoprotein-mediated rhodamine-123 efflux in human K562/p-gp cells after 1 hr by flow cytometry; assay type: cell-based
K562 [7] = assay: Effect on rhodamine-123 efflux in wild type human K562 cells at 0.5 uM after 1 hr by flow cytometry; assay type: ADME, cell-based; details: k562, 1 h
BCRP (ABCG2) = target: T2, BCRP (ABCG2) (Homo sapiens, UniProt Q9UNQ0); assay: (§2) Inhibition of BCRP-mediated pheophorbide-A efflux in human K562/BCRP cells at 0.5 uM after 1 hr by flow cytometry; assay type: cell-based; details: K562/BCRP cells, probe pheophorbide-A
T2 sequence (Q9UNQ0 whole entry): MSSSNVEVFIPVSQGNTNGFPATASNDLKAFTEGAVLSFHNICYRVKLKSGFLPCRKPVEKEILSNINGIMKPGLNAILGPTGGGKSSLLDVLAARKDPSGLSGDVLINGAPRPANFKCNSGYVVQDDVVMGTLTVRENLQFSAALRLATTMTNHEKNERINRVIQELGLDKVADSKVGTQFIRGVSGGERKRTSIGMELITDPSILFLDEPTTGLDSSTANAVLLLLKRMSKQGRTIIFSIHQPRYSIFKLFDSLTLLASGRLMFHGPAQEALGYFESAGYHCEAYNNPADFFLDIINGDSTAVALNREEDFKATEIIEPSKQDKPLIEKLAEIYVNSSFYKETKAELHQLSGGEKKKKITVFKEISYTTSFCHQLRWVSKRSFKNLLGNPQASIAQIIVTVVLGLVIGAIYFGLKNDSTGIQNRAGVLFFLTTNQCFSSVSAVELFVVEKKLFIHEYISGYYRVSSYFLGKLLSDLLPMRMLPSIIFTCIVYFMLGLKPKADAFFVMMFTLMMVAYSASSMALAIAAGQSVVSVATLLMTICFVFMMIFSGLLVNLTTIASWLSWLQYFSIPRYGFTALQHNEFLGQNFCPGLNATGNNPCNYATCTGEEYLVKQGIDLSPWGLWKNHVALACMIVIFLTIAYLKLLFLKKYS

[8] = target: Multidrug resistance-associated protein 1 (Homo sapiens, UniProt P33527); assay: Inhibition of MRP1 (unknown origin)-mediated calcein-AM efflux expressed in HEK293/MRP1 cells at 0.5 uM after 1 hr by flow cytometry; assay type: cell-based; details: hek293/mrp1, 1 h
[9] = Potentiation of paclitaxel-induced cytotoxicity against human LCC6 cells at 200 nM after 72 hrs by SRB assay relative to control; assay type: functional
[10] = target: T1, ATP-dependent translocase ABCB1; assay: Inhibition of p-glycoprotein in human LCC6/MDR cells assessed as increase of paclitaxel-induced cytotoxicity at 200 nM after 72 hrs by SRB assay relative to control; assay type: cell-based; details: 0.2 µM
MCF7 [11] = assay: Potentiation of mitoxantrone-induced cytotoxicity against human MCF7 cells at 200 nM after 72 hrs by SRB assay relative to control; assay type: functional
[12] = target: T3, Broad substrate specificity ATP-binding cassette transporter ABCG2 (Homo sapiens, UniProt Q9UNQ0); assay: Inhibition of BCRP in human MCF-7 FLV1000 cells assessed as increase of mitoxantrone-induced cytotoxicity at 200 nM after 72 hrs by SRB assay relative to control; assay type: cell-based; details: 0.2 µM
T3 sequence (Q9UNQ0 whole entry): T2 sequence (Q9UNQ0 whole entry)

HepG2 [13] = assay: Potentiation of doxorubicin-induced cytotoxicity against human HepG2 cells at 200 nM after 72 hrs by SRB assay relative to control; assay type: functional
[14] = target: T1, ATP-dependent translocase ABCB1; assay: Inhibition of p-glycoprotein in human HepG2 cells assessed as increase of doxorubicin-induced cytotoxicity at 200 nM after 72 hrs by SRB assay relative to control; assay type: cell-based; details: hepg2, 72 h, 0.2 µM
SW-620 [15] = assay: Potentiation of doxorubicin-induced cytotoxicity against human SW620 cells at 200 nM after 72 hrs by SRB assay relative to control; assay type: functional
[16] = target: T1, ATP-dependent translocase ABCB1; assay: Inhibition of p-glycoprotein in human SW620/AD300 cells assessed as increase of doxorubicin-induced cytotoxicity at 200 nM after 72 hrs by SRB assay relative to control; assay type: cell-based; details: sw-620, 72 h, 0.2 µM
SW-620 [17] = assay: Cytotoxicity against human SW620 cells at 200 nM after 72 hrs by SRB assay; assay type: cell-based; details: sw-620, 72 h, 0.2 µM
[18] = Cytotoxicity against human SW620/AD300 cells expressing p-glycoprotein at 200 nM after 72 hrs by SRB assay; assay type: cell-based; details: sw-620, 72 h, 0.2 µM
HepG2 [19] = assay: Cytotoxicity against human HepG2 cells at 200 nM after 72 hrs by SRB assay; assay type: cell-based; details: hepg2, 72 h, 0.2 µM
HepG2 [20] = assay: Cytotoxicity against human HepG2 cells expressing p-glycoprotein at 200 nM after 72 hrs by SRB assay; assay type: cell-based; details: hepg2, 72 h, 0.2 µM
MCF7 [21] = assay: Cytotoxicity against human MCF7 cells at 200 nM after 72 hrs by SRB assay; assay type: cell-based; details: mcf7, 72 h, 0.2 µM
[22] = Cytotoxicity against human MCF-7 FLV1000 cells expressing BCRP at 200 nM after 72 hrs by SRB assay; assay type: ADME, cell-based; details: mcf-7 flv1000, 72 h, 0.2 µM
[23] = Cytotoxicity against human LCC6 cells at 200 nM after 72 hrs by SRB assay; assay type: cell-based; details: lcc6, 72 h, 0.2 µM
[24] = Cytotoxicity against human LCC6 cells expressing p-glycoprotein at 200 nM after 72 hrs by SRB assay; assay type: cell-based; details: lcc6, 72 h, 0.2 µM
K562 [25] = assay: Induction of UIC2 antibody binding to p-glycoprotein in human K562 cells at 0.5 uM preincubated for 10 mins followed by antibody addition measured after 45 mins by flow cytometry relative to tariquidar; assay type: cell-based
[26] = target: T3, Broad substrate specificity ATP-binding cassette transporter ABCG2; assay: Induction of 5D3 antibody binding to BCRP in human K562 cells at 0.5 uM preincubated for 10 mins followed by antibody addition measured after 45 mins by flow cytometry relative to tariquidar; assay type: cell-based; details: k562, 0.75 h
Homo sapiens = organism: Homo sapiens; assay: Inhibition of p-glycoprotein (unknown origin) expressed in High five insect cell membranes assessed as ATP hydrolysis after 20 mins by colorimetric ATPase assay
[27] = target: T3, Broad substrate specificity ATP-binding cassette transporter ABCG2; assay: Induction of BCRP (unknown origin) expressed in High five insect cell membranes assessed as ATP hydrolysis after 10 mins by colorimetric ATPase assay
[28] = target: T1, ATP-dependent translocase ABCB1; assay: Inhibition of p-glycoprotein-mediated doxorubicin efflux in human K562/p-gp cells at 1 uM after 1 hr by flow cytometry; assay type: cell-based
P-glycoprotein (ABCB1) = P-glycoprotein (ABCB1) (Homo sapiens, UniProt P08183); assay: as §1; assay type: cell-based; details: K562/p-gp cells, probe rhodamine-123
[29] = target: T3, Broad substrate specificity ATP-binding cassette transporter ABCG2; assay: as §2; assay type: cell-based; details: k562/bcrp, 1 h, 0.5 µM

Multidrug resistance-associated protein 1, sequence (P33527 whole entry): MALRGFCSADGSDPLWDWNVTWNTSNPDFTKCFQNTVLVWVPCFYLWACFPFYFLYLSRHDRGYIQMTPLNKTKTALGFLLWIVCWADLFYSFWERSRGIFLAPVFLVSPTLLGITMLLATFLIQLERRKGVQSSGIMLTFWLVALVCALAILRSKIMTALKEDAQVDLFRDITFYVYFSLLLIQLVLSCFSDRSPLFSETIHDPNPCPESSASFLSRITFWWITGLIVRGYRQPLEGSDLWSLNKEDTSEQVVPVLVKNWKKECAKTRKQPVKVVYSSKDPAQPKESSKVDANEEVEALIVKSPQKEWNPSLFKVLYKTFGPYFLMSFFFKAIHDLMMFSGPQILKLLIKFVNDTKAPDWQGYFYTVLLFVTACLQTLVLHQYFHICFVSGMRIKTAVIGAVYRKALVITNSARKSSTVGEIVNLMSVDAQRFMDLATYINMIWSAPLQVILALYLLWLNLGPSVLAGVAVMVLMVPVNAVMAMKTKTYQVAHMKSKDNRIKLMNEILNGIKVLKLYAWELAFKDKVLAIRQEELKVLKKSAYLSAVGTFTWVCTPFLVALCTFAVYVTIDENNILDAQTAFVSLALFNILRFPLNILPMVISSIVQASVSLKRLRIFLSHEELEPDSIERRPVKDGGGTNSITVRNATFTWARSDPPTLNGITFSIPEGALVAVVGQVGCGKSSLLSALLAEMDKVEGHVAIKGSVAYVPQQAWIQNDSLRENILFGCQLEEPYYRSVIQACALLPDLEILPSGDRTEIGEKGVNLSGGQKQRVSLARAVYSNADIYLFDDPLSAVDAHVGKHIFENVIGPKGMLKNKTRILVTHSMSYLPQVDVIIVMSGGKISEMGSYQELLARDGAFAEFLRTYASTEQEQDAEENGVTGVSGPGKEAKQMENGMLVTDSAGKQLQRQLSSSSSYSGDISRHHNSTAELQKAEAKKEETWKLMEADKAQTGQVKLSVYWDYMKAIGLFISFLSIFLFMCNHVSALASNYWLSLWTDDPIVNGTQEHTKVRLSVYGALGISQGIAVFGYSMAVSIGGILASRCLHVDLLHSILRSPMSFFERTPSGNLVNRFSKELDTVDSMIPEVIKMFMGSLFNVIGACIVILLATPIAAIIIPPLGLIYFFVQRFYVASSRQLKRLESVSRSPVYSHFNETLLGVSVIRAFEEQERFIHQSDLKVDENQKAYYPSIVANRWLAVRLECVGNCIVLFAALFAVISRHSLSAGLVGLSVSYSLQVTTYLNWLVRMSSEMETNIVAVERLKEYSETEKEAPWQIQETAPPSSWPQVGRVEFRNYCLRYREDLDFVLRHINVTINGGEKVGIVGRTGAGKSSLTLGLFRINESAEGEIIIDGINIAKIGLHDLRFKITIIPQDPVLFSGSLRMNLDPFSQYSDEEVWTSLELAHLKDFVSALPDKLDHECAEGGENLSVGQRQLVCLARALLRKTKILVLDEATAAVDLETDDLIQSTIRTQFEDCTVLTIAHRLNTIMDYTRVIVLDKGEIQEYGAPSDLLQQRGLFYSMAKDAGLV
T1 sequence (P08183 whole entry): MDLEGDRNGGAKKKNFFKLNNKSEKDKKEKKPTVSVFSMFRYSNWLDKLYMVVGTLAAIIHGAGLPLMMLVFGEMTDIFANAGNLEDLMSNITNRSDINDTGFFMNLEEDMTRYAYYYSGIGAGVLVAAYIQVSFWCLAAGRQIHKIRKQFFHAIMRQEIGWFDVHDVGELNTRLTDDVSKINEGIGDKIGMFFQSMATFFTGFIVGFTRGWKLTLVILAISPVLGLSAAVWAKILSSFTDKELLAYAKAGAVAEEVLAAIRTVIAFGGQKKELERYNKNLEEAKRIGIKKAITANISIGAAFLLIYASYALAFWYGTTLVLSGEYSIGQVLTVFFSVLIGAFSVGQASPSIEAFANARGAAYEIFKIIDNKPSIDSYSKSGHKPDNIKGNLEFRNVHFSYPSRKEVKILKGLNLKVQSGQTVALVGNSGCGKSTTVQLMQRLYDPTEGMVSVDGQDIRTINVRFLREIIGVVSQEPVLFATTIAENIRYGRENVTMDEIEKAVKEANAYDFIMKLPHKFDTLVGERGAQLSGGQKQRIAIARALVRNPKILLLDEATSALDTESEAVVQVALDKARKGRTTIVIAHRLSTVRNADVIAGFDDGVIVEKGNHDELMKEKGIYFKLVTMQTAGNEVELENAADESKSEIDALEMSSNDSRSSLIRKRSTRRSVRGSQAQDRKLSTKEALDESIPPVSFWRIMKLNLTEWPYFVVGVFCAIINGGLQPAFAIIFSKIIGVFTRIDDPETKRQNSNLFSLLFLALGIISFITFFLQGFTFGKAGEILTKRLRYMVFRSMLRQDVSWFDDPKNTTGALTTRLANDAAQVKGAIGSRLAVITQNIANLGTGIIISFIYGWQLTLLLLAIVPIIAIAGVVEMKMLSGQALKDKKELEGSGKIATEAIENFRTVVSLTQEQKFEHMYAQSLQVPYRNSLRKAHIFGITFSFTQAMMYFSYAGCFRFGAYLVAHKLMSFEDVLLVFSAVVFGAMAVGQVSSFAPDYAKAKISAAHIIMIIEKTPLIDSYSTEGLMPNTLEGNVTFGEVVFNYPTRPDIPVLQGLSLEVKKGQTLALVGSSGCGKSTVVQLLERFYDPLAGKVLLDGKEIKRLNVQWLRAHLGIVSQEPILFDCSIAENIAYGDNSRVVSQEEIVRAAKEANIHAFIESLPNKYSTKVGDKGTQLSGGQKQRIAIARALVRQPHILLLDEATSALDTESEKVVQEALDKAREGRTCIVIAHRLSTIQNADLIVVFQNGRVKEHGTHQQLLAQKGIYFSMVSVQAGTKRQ
P-glycoprotein (ABCB1), sequence (P08183 whole entry): as above

SMILES	IC50 (HCT-116) [µM]	IC50 (SW-620 [1]) [µM]	IC50 [2] [µM]	IC50 [3] [µM]	IC50 [4] [µM]	inhibition (INH) [5]	inhibition (INH) [6]	Activity (K562 [7])	inhibition (INH) [8]	fold change (FC) [9]	fold change (FC) [10]	fold change (FC) (MCF7 [11])	fold change (FC) [12]	Activity (MCF7 [21])	Activity [22]	Activity [23]	Activity [24]	Activity (K562 [25])	Activity [26]	inhibition (Homo sapiens)	other results
COc1cc2c(cc1OC)CN(CCc1ccc(NC(=O)c3ccccc3NC(=O)c3ccc(F)cc3[N+](=O)[O-])cc1)CC2	> 100	> 100	> 100	> 100	> 10	Active	Dose-dependent effect	Non-toxic	Not Active	1.1	35	1.7	46	Non-toxic	Non-toxic	Non-toxic	Non-toxic	57.3%	119.1%	Dose-dependent effect	IC50 (Hepatocyte): 100 µM; inhibition at 1 h, 0.5 µM (BCRP (ABCG2)): 60%; fold change (FC) (HepG2 [13]): 0.76; fold change (FC) [14]: 0.36; fold change (FC) (SW-620 [15]): 1.6; fold change (FC) [16]: 3.62; Activity (SW-620 [17]): Non-toxic; Activity [18]: Non-toxic; Activity (HepG2 [19]): Non-toxic; Activity (HepG2 [20]): Non-toxic; Activity [27]: Active
COc1cc2c(cc1OC)CN(CCc1ccc(NC(=O)c3ccccc3N(S(=O)(=O)c3ccc(Br)cc3)S(=O)(=O)c3ccc(Br)cc3)cc1)CC2	> 100	> 100	> 100	> 100	> 5	Active	Dose-dependent effect	Non-toxic	Not Active	1.3	36	–	–	–	–	Non-toxic	Non-toxic	47%	–	Dose-dependent effect	Activity (Hepatocyte): Non-toxic; inhibition (INH) [28]: Active
COc1cc2c(cc1OC)CN(CCc1ccc(NC(=O)c3ccccc3NS(=O)(=O)c3ccc(C(C)(C)C)cc3)cc1)CC2	> 100	> 100	> 100	> 100	> 100	–	–	–	Not Active	–	–	–	–	–	–	–	–	inactive	Not Active	–	inhibition (INH) [28]: Active
COc1cc2c(cc1OC)CN(CCc1ccc(NC(=O)c3ccccc3NC(=O)c3cnc4ccccc4c3)cc1)CC2	> 100	> 100	> 100	> 100	> 5	–	Dose-dependent effect	Non-toxic	Not Active	0.9	2.8	1.3	2.9	Non-toxic	Non-toxic	Non-toxic	Non-toxic	93.2%	90.7%	Dose-dependent effect	IC50 (Hepatocyte): 50 µM; inhibition at 1 h, 0.5 µM (P-glycoprotein (ABCB1)): 90.5%; inhibition (INH) [28]: Active; inhibition (INH) [29]: Active; fold change (FC) (HepG2 [13]): 0.29; fold change (FC) [14]: 0.38; fold change (FC) (SW-620 [15]): 0.36; fold change (FC) [16]: 6.23; Activity (SW-620 [17]): Non-toxic; Activity [18]: Non-toxic; Activity (HepG2 [19]): Non-toxic; Activity (HepG2 [20]): Non-toxic; Activity [27]: Active
COc1cc2c(cc1OC)CN(CCc1ccc(NC(=O)c3ccccc3NC(=O)c3ccco3)cc1)CC2	> 100	> 100	> 100	> 100	> 100	Active	Dose-dependent effect	Non-toxic	Not Active	1.3	46	1.4	2.1	Non-toxic	Non-toxic	Non-toxic	Non-toxic	35.5%	149.4%	Dose-dependent effect	Activity (Hepatocyte): Non-toxic; inhibition (INH) [29]: Active; fold change (FC) (HepG2 [13]): 1.09; fold change (FC) [14]: 3; fold change (FC) (SW-620 [15]): 2.1; fold change (FC) [16]: 2.63; Activity (SW-620 [17]): Non-toxic; Activity [18]: Non-toxic; Activity (HepG2 [19]): Non-toxic; Activity (HepG2 [20]): Non-toxic; Activity [27]: Active
COc1cc2c(cc1OC)CN(CCc1ccc(NC(=O)c3ccccc3NC(=O)/C=C/c3ccccc3)cc1)CC2	> 100	> 100	> 100	> 100	> 20	Active	Dose-dependent effect	Non-toxic	Not Active	1.6	33	1.5	64	Non-toxic	Non-toxic	Non-toxic	Non-toxic	46.3%	118.6%	Dose-dependent effect	IC50 (Hepatocyte): 100 µM; inhibition at 1 h, 0.5 µM (BCRP (ABCG2)): 60%; Activity [27]: Active
